Test results reported in patent US8618289B2 (Ambit Biosciences Corporation, priority 2008, dated 2013).
Structures can show the parent of a compound that is named as a salt.

Columns and labels:
RAF kinases [1] = molecular target: RAF kinases (Homo sapiens, UniProt P15056, V600E); settings: read-out: BRAF V600E Kd; BRAF V600E
RAF kinases [2] = molecular target: RAF kinases (Homo sapiens, UniProt P04049); settings: read-out: RAF1 Kd; RAF1
RAF kinases [3] = molecular target: RAF kinases (Homo sapiens, UniProt P15056); settings: read-out: BRAF WT Kd; BRAF WT
[4] = system: MEK1 phosphorylation in the A375 human melanoma cell line; experiment: cells; settings: A-375, read-out: pMEK IC50
A375 cells = experiment: cells; settings: Homo sapiens, A-375, read-out: A375 Viability EC50

Sequence of RAF kinases (Homo sapiens, UniProt P15056) (P15056 whole entry): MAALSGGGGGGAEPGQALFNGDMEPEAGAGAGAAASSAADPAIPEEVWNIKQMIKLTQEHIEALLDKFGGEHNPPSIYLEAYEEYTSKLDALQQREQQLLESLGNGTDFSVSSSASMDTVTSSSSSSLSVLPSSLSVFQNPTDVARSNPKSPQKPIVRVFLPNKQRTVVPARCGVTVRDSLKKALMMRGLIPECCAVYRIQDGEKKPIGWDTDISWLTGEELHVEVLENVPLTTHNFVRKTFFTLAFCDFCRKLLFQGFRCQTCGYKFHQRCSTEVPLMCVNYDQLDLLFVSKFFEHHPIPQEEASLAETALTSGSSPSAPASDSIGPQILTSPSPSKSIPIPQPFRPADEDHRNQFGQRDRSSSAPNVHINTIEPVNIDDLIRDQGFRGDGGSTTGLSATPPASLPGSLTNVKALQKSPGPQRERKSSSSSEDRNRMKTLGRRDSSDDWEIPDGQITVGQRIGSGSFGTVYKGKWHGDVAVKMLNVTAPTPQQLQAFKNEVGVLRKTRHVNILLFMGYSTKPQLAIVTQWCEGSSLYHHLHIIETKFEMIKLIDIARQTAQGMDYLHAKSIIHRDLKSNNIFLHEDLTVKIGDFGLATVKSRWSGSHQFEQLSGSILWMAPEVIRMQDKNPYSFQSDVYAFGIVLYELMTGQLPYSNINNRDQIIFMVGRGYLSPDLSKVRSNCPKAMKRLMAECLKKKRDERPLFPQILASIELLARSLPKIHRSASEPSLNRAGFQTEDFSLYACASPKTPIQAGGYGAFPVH
Sequence of RAF kinases (Homo sapiens, UniProt P04049) (P04049 whole entry): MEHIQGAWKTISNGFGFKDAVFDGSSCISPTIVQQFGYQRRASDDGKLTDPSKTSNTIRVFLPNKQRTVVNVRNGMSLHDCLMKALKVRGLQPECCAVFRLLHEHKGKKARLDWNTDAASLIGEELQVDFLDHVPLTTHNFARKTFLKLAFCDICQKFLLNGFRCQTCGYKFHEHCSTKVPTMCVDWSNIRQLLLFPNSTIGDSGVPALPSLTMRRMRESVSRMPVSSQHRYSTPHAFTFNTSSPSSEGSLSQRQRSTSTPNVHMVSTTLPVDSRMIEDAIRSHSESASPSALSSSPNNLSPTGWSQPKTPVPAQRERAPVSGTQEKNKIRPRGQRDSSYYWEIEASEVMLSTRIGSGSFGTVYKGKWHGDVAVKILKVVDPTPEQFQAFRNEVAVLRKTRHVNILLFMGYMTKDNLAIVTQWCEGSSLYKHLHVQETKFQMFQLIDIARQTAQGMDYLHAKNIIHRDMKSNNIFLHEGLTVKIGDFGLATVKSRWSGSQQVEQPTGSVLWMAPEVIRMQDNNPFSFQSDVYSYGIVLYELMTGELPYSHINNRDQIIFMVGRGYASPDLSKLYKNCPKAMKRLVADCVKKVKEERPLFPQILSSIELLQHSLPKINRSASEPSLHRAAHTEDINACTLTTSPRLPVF
Sequence of RAF kinases (Homo sapiens, UniProt P15056, V600E) (P15056 whole entry V600E): as the sequence (P15056 whole entry) above, with V600E counted along it

SMILES | Kd (RAF kinases [1]) | Kd (RAF kinases [2]) | Kd (RAF kinases [3]) | IC50 [4] | EC50 (A375 cells)
COc1cc2ncnc(Oc3cccc(NC(=O)Nc4cc(C(C)(C)C)on4)c3C)c2cc1OC [Ex290, 1-(5-tert-butylisoxazol-3-yl)-3-(3-(6,7-dimethoxyquinazolin-4-yloxy)-2-methylphenyl)urea] | < 250 nM | < 250 nM | < 250 nM | < 250 nM | 250 to 500 nM
COc1cc2ncnc(Oc3cc(NC(=O)Nc4cc(C(C)(C)F)no4)ccc3F)c2cc1OC [Ex293, 1-(3-(6,7-dimethoxyquinazolin-4-yloxy)-4-fluorophenyl)-3-(3-(2-fluoropropan-2-yl)isoxazol-5-yl)urea] | < 250 nM | < 250 nM | < 250 nM | < 250 nM | 250 to 500 nM
COCCOc1cc2ncnc(Oc3cccc(NC(=O)Nc4cc(C(C)C)on4)c3)c2cc1OC [Ex 206, 1-(5-isopropylisoxazol-3-yl)-3-(3-(6-methoxy-7-(2-methoxyethoxy)quinazolin-4-yloxy)phenyl)urea] | < 250 nM | < 250 nM | < 250 nM | 500 to 1000 nM | > 1000 nM
COCCOc1cc2ncnc(Oc3cccc(NC(=O)Nc4cc(C(F)(F)F)n(C)n4)c3)c2cc1OC [Ex 208, 1-{3-[6-methoxy-7-(2-methoxyethoxy)quinazolin-4-yloxy]phenyl}-3-[1-methyl-5-(trifluoromethyl)-1H-pyrazol-3-yl]urea] | < 250 nM | < 250 nM | < 250 nM | > 1000 nM | > 1000 nM
COCCOc1cc2ncnc(Oc3cccc(NC(=O)Nc4cc(C5CC5)no4)c3)c2cc1OC [Ex 214, 1-(3-cyclopropylisoxazol-5-yl)-3-(3-(6-methoxy-7-(2-methoxyethoxy)quinazolin-4-yloxy)phenyl)urea] | < 250 nM | < 250 nM | < 250 nM | > 1000 nM | > 1000 nM
COCCOc1cc2ncnc(Oc3cccc(NC(=O)Nc4cc(C5CCCC5)on4)c3)c2cc1OC [Ex 219, 1-(5-cyclopentylisoxazol-3-yl)-3-(3-(6-methoxy-7-(2-methoxyethoxy)quinazolin-4-yloxy)phenyl)urea] | < 250 nM | < 250 nM | < 250 nM | < 250 nM | 250 to 500 nM
COCCOc1cc2ncnc(Oc3cccc(NC(=O)Nc4cc(C(F)(F)F)nn4C)c3)c2cc1OC [Ex 220, 1-{3-[6-methoxy-7-(2-methoxyethoxy)quinazolin-4-yloxy]phenyl}-3-[1-methyl-3-(trifluoromethyl)-1H-pyrazol-5-yl]urea] | < 250 nM | < 250 nM | < 250 nM | 500 to 1000 nM | > 1000 nM
CCOC(=O)Cn1nc(C(C)(C)C)cc1NC(=O)Nc1cccc(Oc2ncnc3cc(OCCOC)c(OC)cc23)c1 [Ex 224, ethyl 2-[3-tert-butyl-5-(3-{3-[6-methoxy-7-(2-methoxyethoxy)quinazolin-4-yloxy]phenyl}ureido)-1H-pyrazol-1-yl]acetate hydrochloride] | > 1000 nM | > 1000 nM | > 1000 nM | > 1000 nM | > 1000 nM
COCCOc1cc2ncnc(Sc3cccc(NC(=O)Nc4cc(C(C)C)on4)c3)c2cc1OC [Ex 232, 1-(5-isopropylisoxazol-3-yl)-3-(3-(6-methoxy-7-(2-methoxyethoxy)quinazolin-4-ylthio)phenyl)urea] | < 250 nM | < 250 nM | < 250 nM | 250 to 500 nM | > 1000 nM
COCCOc1cc2ncnc(Sc3cccc(NC(=O)Nc4cc(C(C)(CF)CF)nn4-c4ccccc4)c3)c2cc1OC [Ex 238, 1-[3-(1,3-difluoro-2-methylpropan-2-yl)-1-phenyl-1H-pyrazol-5-yl]-3-{3-[6-methoxy-7-(2-methoxyethoxy)quinazolin-4-ylthio]phenyl}urea] | > 1000 nM | > 1000 nM | > 1000 nM | < 250 nM | > 1000 nM

Next, values leading:

Kd (RAF kinases [1]) | Kd (RAF kinases [2]) | Kd (RAF kinases [3]) | IC50 [4] | EC50 (A375 cells) | SMILES
< 250 nM | < 250 nM | < 250 nM | 250 to 500 nM | > 1000 nM | COCCOc1cc2ncnc(Sc3cccc(NC(=O)Nc4cc(C(F)(F)F)nn4C)c3)c2cc1OC [Ex 239, 1-{3-[6-methoxy-7-(2-methoxyethoxy)quinazolin-4-ylthio]phenyl}-3-[1-methyl-3-(trifluoromethyl)-1H-pyrazol-5-yl]urea]
> 1000 nM | > 1000 nM | > 1000 nM | 250 to 500 nM | 250 to 500 nM | COCCOc1cc2ncnc(Sc3cccc(NC(=O)Nc4cc(C(F)(F)F)nn4-c4ccc(C)cc4)c3)c2cc1OC [Ex 243, 1-{3-[6-methoxy-7-(2-methoxyethoxy)quinazolin-4-ylthio]phenyl}-3-[1-p-tolyl-3-(trifluoromethyl)-1H-pyrazol-5-yl]urea]
> 1000 nM | > 1000 nM | > 1000 nM | > 1000 nM | > 1000 nM | COCCOc1cc2ncnc(Sc3cccc(NC(=O)Nc4cc(C(F)(F)F)n(-c5ccccc5)n4)c3)c2cc1OC [Ex 244, 1-{3-[6-methoxy-7-(2-methoxyethoxy)quinazolin-4-ylthio]phenyl}-3-[1-phenyl-5-(trifluoromethyl)-1H-pyrazol-3-yl]urea]
< 250 nM | < 250 nM | < 250 nM | 250 to 500 nM | > 1000 nM | COc1cc2c(Oc3cccc(NC(=O)Nc4ccc(OC)c(C(F)(F)F)c4)c3)ncnc2cc1OCCN1CCOCC1 [Ex 250, 1-(4-methoxy-3-(trifluoromethyl)phenyl)-3-(3-(6-methoxy-7-(2-morpholinoethoxy)quinazolin-4-yloxy)phenyl)urea]
> 1000 nM | > 1000 nM | > 1000 nM | 500 to 1000 nM | > 1000 nM | COc1cc2ncnc([S+]([O-])c3cccc(NC(=O)Nc4cc(C(C)(C)C)on4)c3)c2cc1OC (stereo not drawn) [Ex 253, 1-(5-tert-butylisoxazol-3-yl)-3-(3-(6,7-dimethoxyquinazolin-4-ylsulfinyl)phenyl)urea]
< 250 nM | < 250 nM | < 250 nM | < 250 nM | < 250 nM | COc1cc2c(Oc3cccc(NC(=O)Nc4cc(C(C)(C)C)on4)c3)ncnc2cc1OCCCN1CCS(=O)(=O)CC1 [Ex 256, 1-(5-tert-butyl-isoxazol-3-yl)-3-(3-{7-[3-(1,1-dioxo-thiomorpholin-4-yl)-propoxy]-6-methoxy-quinazolin-4-yloxy}-phenyl)-urea]
< 250 nM | < 250 nM | < 250 nM | 250 to 500 nM | 500 to 1000 nM | COc1cc2c(Oc3cccc(NC(=O)Nc4cc(C(C)(C)F)no4)c3)ncnc2cc1O [Ex 257, 1-(3-(2-fluoropropan-2-yl)isoxazol-5-yl)-3-(3-(7-hydroxy-6-methoxyquinazolin-4-yloxy)phenyl)urea]
< 250 nM | < 250 nM | < 250 nM | < 250 nM | 250 to 500 nM | COc1cc2ncnc(Oc3cccc(NC(=O)Nc4cc(C(C)(C)F)no4)c3)c2cc1O [Ex 258, 1-(3-(2-fluoropropan-2-yl)isoxazol-5-yl)-3-(3-(6-hydroxy-7-methoxyquinazolin-4-yloxy)phenyl)urea]
< 250 nM | < 250 nM | < 250 nM | < 250 nM | < 250 nM | CCOc1cc2c(Oc3cccc(NC(=O)Nc4cc(C(C)(C)C(F)(F)F)on4)c3)ncnc2cc1OC [Ex 260, 1-(3-(6-ethoxy-7-methoxyquinazolin-4-yloxy)phenyl)-3-(5-(1,1,1-trifluoro-2-methylpropan-2-yl)isoxazol-3-yl)urea]
< 250 nM | < 250 nM | < 250 nM | < 250 nM | > 1000 nM | CCOc1cc2c(Sc3cccc(NC(=O)Nc4cc(C(C)(C)C(F)(F)F)on4)c3)ncnc2cc1OC [Ex 262, 1-(3-(6-ethoxy-7-methoxyquinazolin-4-ylthio)phenyl)-3-(5-(1,1,1-trifluoro-2-methylpropan-2-yl)isoxazol-3-yl)urea]
< 250 nM | < 250 nM | < 250 nM | < 250 nM | 500 to 1000 nM | COc1cc2c(Oc3cccc(NC(=O)Nc4cc(C(C)(C)C(F)(F)F)on4)c3)ncnc2cc1O [Ex 263, 1-(3-(7-hydroxy-6-methoxyquinazolin-4-yloxy)phenyl)-3-(5-(1,1,1-trifluoro-2-methylpropan-2-yl)isoxazol-3-yl)urea]
< 250 nM | < 250 nM | < 250 nM | < 250 nM | < 250 nM | COc1cc2ncnc(Oc3cccc(NC(=O)Nc4cc(C(C)(C)C(F)(F)F)on4)c3)c2cc1O [Ex 264, 1-(3-(6-hydroxy-7-methoxyquinazolin-4-yloxy)phenyl)-3-(5-(1,1,1-trifluoro-2-methylpropan-2-yl)isoxazol-3-yl)urea]
< 250 nM | < 250 nM | < 250 nM | < 250 nM | 500 to 1000 nM | COc1cc2ncnc(Oc3cccc(NC(=O)Nc4cc(C(C)(C)C(F)(F)F)no4)c3)c2cc1OC [Ex 267, 1-(3-(6,7-dimethoxyquinazolin-4-yloxy)phenyl)-3-(3-(1,1,1-trifluoro-2-methylpropan-2-yl)isoxazol-5-yl)urea]
< 250 nM | > 1000 nM | > 1000 nM | < 250 nM | – | COc1cc2ncnc(Sc3cccc(NC(=O)Nc4cc(C(C)(C)C)nn4-c4ccc(C(C)(C)C)cc4)c3)c2cc1OC [Ex 370, 1-(3-tert-butyl-1-(4-tert-butylphenyl)-1H-pyrazol-5-yl)-3-(3-(6,7-dimethoxyquinazolin-4-ylthio)phenyl)urea]
< 250 nM | < 250 nM | < 250 nM | < 250 nM | – | COc1cc2ncnc(Sc3cccc(NC(=O)Nc4cc(C(C)(C)C#N)no4)c3)c2cc1OC [Ex 381, 1-(3-(2-cyanopropan-2-yl)isoxazol-5-yl)-3-(3-(6,7-dimethoxyquinazolin-4-ylthio)phenyl)urea]
